The values below are quoted from earlier work in PMC5897141 (Journal of neurochemistry, 2018).

Series [1] relates to VAChT. Particulars: NHP brain; ref Nishiyama et al. 2014; cited from earlier work.
The test system of series [2] is σ1/2 receptors. Particulars: ref Shiba et al. 2006, Kawamura et al. 2006; cited from earlier work.

In the case of `Cc1cccc2c1C[C@@H](O)[C@H](N1CCN(c3ccccc3N)CC1)C2` (relative stereo) [[^11C](R,R)HAPT, (R,R)-trans-8-methyl-2-hydroxy-3-[4-[2-aminophenyl]-piperizinyl]tetralin, reference compound], the “time-activity curves peak time post injection” value in series [1] was at most 20 min. Moreover, in series [2], the “selectivity for VAChT versus σ1/2 receptors” value was 10 fold.
